Measured values: US20060166941A1, “Treatment and/or prevention of non-viral epithelial damage” (Epistem Limited, priority 2003, published 2006)
Counter-ions that a name gives are not always drawn.

Columns and labels:
oral mucosa [1] = assay: In vivo protection of oral mucosa following chemotherapy (5FU) damage, ventral tongue cellularity; design: species or system mice; conditions: 50 mg/kg intra-peritoneal 1 hr prior to 5FU (400 mg/kg x 2) and daily for three days; versus vehicle
Method: In Vivo Protection of Oral Mucosa Following Chemotherapy Damage. The ability of foscarnet (phosphonoformic acid trisodium salt hexahydrate) to prevent cytotoxic damage to oral mucosa was illustrated by the following experiment. The model of cytotoxic insult used was treatment with 2 doses of 400 mg/kilogram bodyweight 5-Flurouracil 6 hours apart. Such cytotoxic treatment provides a model of chemotherapy administered to patients undergoing treatment for cancer. Experimental groups, each of five mice, were established as set out below: Group 2: Received intra-peritoneal injection, containing 50 mg foscarnet/kilogram bodyweight, in sterile water, one hour prior to the first cytotoxic treatment (400 mg 5-Flurouracil/kilogram bodyweight). Received one further identical injection of foscarnet (50 mg/kilogram bodyweight) on each of the three days following cytotoxic treatment. […] Tissue sections were stained with thionin and using a Zeiss AxioHOME the number of cells were assessed in both the basal and suprabasal layers of the ventral surface of the tongue. The area from the basal layer to the stratum corneum stratum granulosum interface was measured along with the length of the basal layer. […] From these measurements the damage that the 5FU had caused to the tongue could be assessed as overall cellularity of the tongue or the total number of cells/unit area (mm^2). […]

oral mucosa [2] = assay: In vivo protection of oral mucosa following radiation damage (20 Gy head only), ventral tongue cellularity; design: species or system mice; conditions: 50 mg/kg 1 hr prior to 20 Gy (head only) and once a day until sampling; versus vehicle
Description: In Vivo Protection of Oral Mucosa Following Radiation Damage. The ability of foscarnet (phosphonoformic acid trisodium salt hexahydrate) to prevent radiological damage to oral mucosa was illustrated by the following experiment. The model of cytotoxic insult used was treatment with 20 Gy X-ray radiation (head only) at a dose rate of 0.7 Gy/minute. Such radiation treatment provides a model of radiotherapy administered to patients undergoing treatment for cancer Experimental groups, each of four mice, were established as set out below: Group 1: Received intra-peritoneal injection, containing 50 mg foscarnet/kilogram bodyweight, in sterile water, one hour prior to radiation. Received one further identical injection on each of the two days following radiation. On the third day after radiation the animals were killed, and oral tissue harvested for analysis. […] Using a Zeiss AxioHOME the number of bromodeoxyuridine labelled and unlabelled cells were assessed in both the basal and suprabasal layers of the ventral surface of the tongue. The area from the basal layer to the stratum corneum stratum granulosum interface was measured along with the length of the basal layer. […] From these measurements the damage that the radiation had caused to the tongue could be assessed as overall cellularity of the tongue or the total number of cells/unit area (mm^2). […]

Structure (SMILES): O=C(O)P(=O)(O)O [foscarnet, phosphonoformic acid trisodium salt hexahydrate]
- numbers of cells per unit area in the epithelium covering the ventral surface of the tongue (FIG. 4) (oral mucosa [1]): extra cells per unit area gained
- average number of cells/unit area, ventral tongue epithelium (FIG. 7) (oral mucosa [2]): increased
- overall cellularity of the ventral tongue over time (FIG. 6) (oral mucosa [2]): increased
